Series [1] addresses T1, human NK-3 receptor (Homo sapiens (Human), UniProt P29371). The series is described as follows: Aequorin functional assay with human NK-3 receptor (antagonist testing vs NKA). It is filed as cell-based. To be noted: CHO cells, NKA at EC80 (3 nM); read-out: Functional assay: Aequorin assay with human NK-3 receptor hNK-3-AEQ (antagonist IC50). The procedure, abridged: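 CHO cells co-expressing human NK-3 receptor and apoaequorin were pre-incubated 3 min with compound, then challenged with NKA at EC80 (3 nM). Coelenterazine-dependent luminescence was integrated over 90 s, and antagonism was derived from concentration-dependent inhibition of the calcium response.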

Series [2] relates to plasma protein. The series is described as follows: Determination of plasma protein binding (equilibrium dialysis, RED). Conditions: 4 hours at 37° C. It is filed as in vitro ADME. A general note: Equilibrium dialysis compares concentrations on both sides of a semipermeable membrane.
Series [3] addresses human NK-2 receptor (Homo sapiens (Human), UniProt P21452). The series is described as follows: Selectivity assay: [125I]-Neurokinin A binding, human NK-2 receptor. Conditions: 0.1 nM [125I]-Neurokinin A, CHO membranes; read-out: hNK-2 (Ki). On the procedure: The affinity of compounds of the invention for the NK-2 receptor was evaluated in CHO recombinant cells which express the human NK-2 receptor. Membrane suspensions were prepared from these cells. […] Binding assays were performed in a 25 mM HEPES/1 mM CaCl2)/5 mM MgCl2/0.5% BSA/10 μg/ml saponin, at pH 7.4. […] The radioactivity retained on the filters was measured by using the TopCount-NXT reader (Packard).

Series [4] has as its target human NK-1 receptor (Homo sapiens (Human), UniProt P25103). Description: Selectivity assay: [3H] substance P binding, human NK-1 receptor. Conditions: 2 nM [3H] substance P, CHO membranes; read-out: hNK-1 (Ki). The procedure, abridged:
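Competition binding on membranes from CHO cells expressing human NK-1 receptor, using 2 nM [3H] substance P in 50 mM Tris/5 mM MnCl2/150 mM NaCl/0.1% BSA, pH 7.4, with increasing compound concentrations. Incubated 60 min at 25 °C; bound radioactivity measured after filtration.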

In series [5] the target is T1, human NK-3 receptor. The series is described as follows: 3H-SB222200 binding competition assay with human NK-3 receptor. The procedure, abridged:
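Membranes from CHO cells stably expressing the receptor were incubated with 5 nM 3H-SB222200 and varying compound concentrations in HEPES 25 mM/NaCl 0.1 M/CaCl2 1 mM/MgCl2 5 mM/BSA 0.5%/saponin 10 μg/ml, pH 7.4. Bound radioligand was quantified as membrane-associated radioactivity after filtration.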

Series [6] concerns circulating levels of luteinizing hormone (LH). Description: Castrated male rat model, circulating luteinizing hormone (LH). To be noted: single oral dose less than or equal to 30 mg/kg, p<0.05. It is filed as in vivo. On the procedure: Castrated Male Rat Model to Assess the Effect of Compound of Invention on Circulating Levels of Luteinizing Hormone (LH)
The effect of compounds of the invention to inhibit luteinizing hormone (LH) secretion is determined by the following biological studies.
In humans and rodents, castration is well-precedented to permit heightened, persistent GnRH signaling and consequent elevation of circulating LH. Thus, a castrated rat model is used to provide a broad index for measurement of LH inhibition as a marker of test compound inhibition of the GnRH signaling pathway.
Castrated adult male Sprague-Dawley (SD) rats (150-175 g,) were purchased from Janvier (St Berthevin, France). All animals were housed 2 per cage in a temperature-controlled room (22±2° C.) and 50±5% relative humidity with a 12 hour/12 hour light/dark cycles (lights off at […]). The animals were allowed 3 weeks of postoperative recovery prior to study. Animals were handled on a daily basis. Standard diet and tap water were provided ad libitum. Animal cage litters were changed once a week. On the study day, animals were acclimated to the procedure room for a period of one hour prior to the initiation of the experiment.
Compounds of the invention were formulated in 0.5% methyl cellulose.
After basal sampling (TO) a single dose of compounds of the invention or vehicle was administrated orally to rats. Blood samples were then collected at several time points post dosing (45, 90, 150, 300 and 420 minutes). Blood samples were obtained via tail vein bleed, drawn into EDTA-containing tubes and centrifuged immediately. Plasma samples were collected and stored in a −80° C. freezer until assayed. Serum LH levels were determined using radioimmunoassay kit from RIAZEN—Rat L H, Zentech (Liege, Belgium). Baseline was defined as the initial basal blood sample.

Where [7] appears, read: Table 2, 5 nM 3H-SB222200, CHO membranes, read-out: Competitive binding assay with human NK-3 receptor hNK-3 (Ki).
Where [8] appears, read: Table 3 (selectivity table), read-out: hNK-3 (Ki).

One may read the IC50 as the concentration at which inhibition is half-maximal. As a reminder, the Ki is a dissociation constant, usually derived from enzyme kinetics or from competition with a known ligand.

Each structure is given as a SMILES string. Like-named read-outs stand apart in the source and are kept apart here.

human NK-2 receptor, sequence (P21452 whole entry): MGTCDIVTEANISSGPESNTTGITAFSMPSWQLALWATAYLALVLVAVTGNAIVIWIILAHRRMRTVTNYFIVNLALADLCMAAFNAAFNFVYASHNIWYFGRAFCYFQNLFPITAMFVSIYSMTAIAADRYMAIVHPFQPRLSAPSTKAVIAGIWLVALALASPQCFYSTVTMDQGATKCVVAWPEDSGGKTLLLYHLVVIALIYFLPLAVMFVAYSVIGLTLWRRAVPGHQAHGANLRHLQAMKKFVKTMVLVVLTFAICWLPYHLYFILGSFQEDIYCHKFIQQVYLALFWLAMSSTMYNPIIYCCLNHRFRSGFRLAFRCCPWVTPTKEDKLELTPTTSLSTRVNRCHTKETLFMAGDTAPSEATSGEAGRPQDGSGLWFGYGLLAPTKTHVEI
human NK-1 receptor, sequence (P25103 whole entry): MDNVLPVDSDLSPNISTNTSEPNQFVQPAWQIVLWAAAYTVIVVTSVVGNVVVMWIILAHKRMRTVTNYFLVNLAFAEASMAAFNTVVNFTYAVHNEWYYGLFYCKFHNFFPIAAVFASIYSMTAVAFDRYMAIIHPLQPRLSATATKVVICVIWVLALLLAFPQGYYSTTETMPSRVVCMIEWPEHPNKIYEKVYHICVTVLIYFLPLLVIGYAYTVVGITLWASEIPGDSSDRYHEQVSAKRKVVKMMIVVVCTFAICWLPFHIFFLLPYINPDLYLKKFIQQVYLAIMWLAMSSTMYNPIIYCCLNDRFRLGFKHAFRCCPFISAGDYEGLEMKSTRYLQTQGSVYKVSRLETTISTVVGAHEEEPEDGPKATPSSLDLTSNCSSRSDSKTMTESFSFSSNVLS
T1 sequence (P29371 whole entry): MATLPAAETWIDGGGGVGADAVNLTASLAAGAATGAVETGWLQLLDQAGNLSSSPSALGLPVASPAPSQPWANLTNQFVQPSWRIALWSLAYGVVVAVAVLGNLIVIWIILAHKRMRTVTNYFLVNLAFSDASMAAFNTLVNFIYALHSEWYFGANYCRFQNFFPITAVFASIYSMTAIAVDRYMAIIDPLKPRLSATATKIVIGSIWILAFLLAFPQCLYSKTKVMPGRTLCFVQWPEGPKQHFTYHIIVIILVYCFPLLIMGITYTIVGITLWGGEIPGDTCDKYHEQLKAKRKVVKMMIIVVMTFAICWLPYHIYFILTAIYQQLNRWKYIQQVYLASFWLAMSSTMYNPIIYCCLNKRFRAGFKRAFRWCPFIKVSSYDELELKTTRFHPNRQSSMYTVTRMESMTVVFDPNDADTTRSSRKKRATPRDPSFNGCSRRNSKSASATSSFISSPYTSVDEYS

For `Cc1nsc(-c2nnc3n2CCN(C(=O)c2ccc(Cl)c(Cl)c2)[C@@H]3C)n1` [Compound 1, (R)-(3,4-dichlorophenyl)(8-methyl-3-(3-methyl-1,2,4-thiadiazol-5-yl)-5,6-dihydro-[1,2,4]triazolo[4,3-a]pyrazin-7(8H)-yl)methanone], in series [1], the IC50 came out at 0.016 µM. Besides, the “Exposure (% rPPB), bound drug fraction to plasma protein” value (“Exposure (% rPPB), bound drug fraction” for short) in series [2] was 67%. Besides, the inhibition constant Ki is 7.5 µM in series [3], 10.3 µM in series [4], 0.011 µM in series [5] (setting [7]) and 0.011 µM in series [5] (setting [8]). For the same molecule, the “circulating LH levels” value in series [6] is listed as “significantly suppressed”.
For `Cc1nsc(-c2nnc3n2CCN(C(=O)c2ccc(F)c(F)c2)[C@@H]3C)n1` [Compound 9, (R)-(3,4-difluorophenyl)(8-methyl-3-(3-methyl-1,2,4-thiadiazol-5-yl)-5,6-dihydro-[1,2,4]triazolo[4,3-a]pyrazin-7(8H)-yl)methanone], the IC50 in series [1] is 0.021 µM. The “Exposure (% rPPB), bound drug fraction” value in series [2] stood at 22%. For the same molecule, the Ki was above 30 µM in series [3], above 30 µM in series [4], 0.03 µM in series [5] (setting [7]) and 0.03 µM in series [5] (setting [8]). The “circulating LH levels” value in series [6] was “significantly suppressed”.
For `CCc1nsc(-c2nnc3n2CCN(C(=O)c2ccc(F)cc2)[C@@H]3C)n1` [Compound 2, (R)-(3-(3-ethyl-1,2,4-thiadiazol-5-yl)-8-methyl-5,6-dihydro-[1,2,4]triazolo[4,3-a]pyrazin-7(8H)-yl)(4-fluorophenyl)methanone], in series [1], the IC50 was found to be 0.012 µM. Moreover, the “Exposure (% rPPB), bound drug fraction” value in series [2] is 47%. Besides, the Ki in series [3] is above 30 µM; in series [4], 23.8 µM; in series [5] (setting [7]), 0.015 µM; in series [5] (setting [8]), 0.015 µM. In series [6], the “circulating LH levels” value was “significantly suppressed”.
In the case of `CCc1noc(-c2nnc3n2CCN(C(=O)c2ccc(F)cc2)[C@@H]3C)n1` [Compound 13, (R)-(3-(3-ethyl-1,2,4-oxadiazol-5-yl)-8-methyl-5,6-dihydro-[1,2,4]triazolo[4,3-a]pyrazin-7(8H)-yl)(4-fluorophenyl)methanone], the IC50 in series [1] is 0.044 µM. The “Exposure (% rPPB), bound drug fraction” value in series [2] was found to be 37%. The Ki was above 30 µM in series [3], above 30 µM in series [4], 0.04 µM in series [5] (setting [7]) and 0.04 µM in series [5] (setting [8]). Besides, the “circulating LH levels” value in series [6] is listed as “significantly suppressed”.
With `CCc1noc(-c2nnc3n2CCN(C(=O)c2ccc(-c4cccs4)cc2)[C@@H]3C)n1` [Compound 30, (R)-(3-(3-ethyl-1,2,4-oxadiazol-5-yl)-8-methyl-5,6-dihydro-[1,2,4]triazolo[4,3-a]pyrazin-7(8H)-yl)(4-(thiophen-2-yl)phenyl)methanone], the IC50 in series [1] was found to be 0.005 µM. In addition, the “Exposure (% rPPB), bound drug fraction” value in series [2] was determined as 94%. In addition, the Ki turned out to be 40 µM in series [4], 0.007 µM in series [5] (setting [7]) and 0.007 µM in series [5] (setting [8]). For the same molecule, in series [6], the “circulating LH levels” value is recorded as “significantly suppressed”.
As to `Cc1nsc(-c2nnc3n2CCN(C(=O)c2ccccc2)[C@@H]3C)n1` [Compound 20, (R)-(8-methyl-3-(3-methyl-1,2,4-thiadiazol-5-yl)-5,6-dihydro-[1,2,4]triazolo[4,3-a]pyrazin-7(8H)-yl)(phenyl)methanone], the IC50 in series [1] was 0.093 µM. The Ki in series [3] was above 30 µM; in series [4], above 30 µM; in series [5] (setting [7]) it was 0.06 µM; in series [5] (setting [8]), 0.06 µM. Also, the “circulating LH levels” value in series [6] is listed as “significantly suppressed”.
Consider `Cc1nsc(-c2nnc3n2CCN(C(=O)c2ccc(Cl)c(F)c2)[C@@H]3C)n1` [Compound 4, (R)-(4-chloro-3-fluorophenyl)(8-methyl-3-(3-methyl-1,2,4-thiadiazol-5-yl)-5,6-dihydro-[1,2,4]triazolo[4,3-a]pyrazin-7(8H)-yl)methanone], for which the IC50 in series [1] was 0.019 µM. For the same molecule, the “Exposure (% rPPB), bound drug fraction” value in series [2] is recorded as 40%. Further, the Ki in series [3] was 23 µM; in series [4] it was 19.9 µM; in series [5] (setting [7]), 0.02 µM; in series [5] (setting [8]), 0.02 µM. The “circulating LH levels” value in series [6] is recorded as “significantly suppressed”.
In the case of `Cc1nsc(-c2nnc3n2CCN(C(=O)c2ccc(F)c(F)c2F)[C@@H]3C)n1` [Compound 8, (R)-(8-methyl-3-(3-methyl-1,2,4-thiadiazol-5-yl)-5,6-dihydro-[1,2,4]triazolo[4,3-a]pyrazin-7(8H)-yl)(2,3,4-trifluorophenyl)methanone], the IC50 in series [1] turned out to be 0.033 µM. Also, the “Exposure (% rPPB), bound drug fraction” value in series [2] was found to be 29%. Moreover, the Ki is above 30 µM in series [3], above 30 µM in series [4], 0.026 µM in series [5] (setting [7]) and 0.026 µM in series [5] (setting [8]). Further, in series [6], the “circulating LH levels” value is on record as “significantly suppressed”.

(Values after patent US20240199618A1, “NOVEL N-ACYL-[3-SUBSTITUTED]-[8-SUBSTITUTED]-5,6-DIHYDRO-[1,2,4]TRIAZOLO[4,3-a]PYRAZINES AS SELECTIVE NK-3 RECEPTOR ANTAGONISTS, PHARMACEUTICAL COMPOSITION, METHODS FOR USE IN NK-3 RECEPTOR-MEDIATED DISORDERS” (Ogeda SA, priority 2013, published 2024).)
